Data reported in ChEMBL document CHEMBL4627293, “Synthesis and in vitro activity of asymmetric indole-based bisamidine compounds against Gram-positive and Gram-negative pathogens” (2020).
In brackets after ≈: the same amount, converted by molar mass.

Tests used:
Format in all cases: functional
Staphylococcus aureus [1] = assay: Antimicrobial activity against methicillin-sensitive Staphylococcus aureus ATCC 29213
Staphylococcus aureus [2] = assay: Antimicrobial activity against methicillin- resistant Staphylococcus aureus ATCC 33591
Enterococcus faecalis [3] = assay: Antimicrobial activity against Vancomycin-sensitive Enterococcus faecalis ATCC 29212
Enterococcus faecalis [4] = assay: Antimicrobial activity against Vancomycin-resistant Enterococcus faecalis ATCC 51299
Escherichia coli = assay: Antimicrobial activity against Escherichia coli ATCC 25922
Klebsiella pneumoniae [5] = assay: Antimicrobial activity against ESBL-producing Klebsiella pneumoniae ATCC 700603
Klebsiella pneumoniae [6] = assay: Antimicrobial activity against NDM-1 producing Klebsiella pneumoniae ATCC BAA-2146
Pseudomonas aeruginosa = assay: Antimicrobial activity against Pseudomonas aeruginosa ATCC 27853
Citrobacter freundii = assay: Antimicrobial activity against Citrobacter freundii ATCC 43864
Providencia rettgeri = assay: Antimicrobial activity against Providencia rettgeri ATCC 31052
Proteus vulgaris = assay: Antimicrobial activity against Proteus vulgaris ATCC 29905
[7] = test system: Staphylococcus epidermidis; assay: Antimicrobial activity against methicillin-susceptible Staphylococcus epidermidis ATCC 12228
Enterococcus faecium = assay: Antimicrobial activity against vancomycin-resistant Enterococcus faecium ATCC 700221
Klebsiella pneumoniae [8] = assay: Antimicrobial activity against Klebsiella pneumoniae 7
[9] = test system: Acinetobacter calcoaceticus; assay: Antimicrobial activity against Acinetobacter calcoaceticus ATCC 19606
Klebsiella aerogenes = assay: Antimicrobial activity against Enterobacter aerogenes ATCC 45102

| SMILES | MIC (Staphylococcus aureus [1]) [µg/mL] | MIC (Staphylococcus aureus [2]) [µg/mL] | MIC (Enterococcus faecalis [3]) [µg/mL] | MIC (Enterococcus faecalis [4]) [µg/mL] | MIC (Escherichia coli) [µg/mL] | MIC (Klebsiella pneumoniae [5]) [µg/mL] | MIC (Klebsiella pneumoniae [6]) [µg/mL] | MIC (Pseudomonas aeruginosa) [µg/mL] | MIC (Citrobacter freundii) [µg/mL] | MIC (Providencia rettgeri) [µg/mL] | MIC (Proteus vulgaris) [µg/mL] | MIC [7] [µg/mL] | MIC (Enterococcus faecium) [µg/mL] | MIC (Klebsiella pneumoniae [8]) [µg/mL] | MIC [9] [µg/mL] | MIC (Klebsiella aerogenes) [µg/mL] |
| --- | --- | --- | --- | --- | --- | --- | --- | --- | --- | --- | --- | --- | --- | --- | --- | --- |
| CNC(=N)c1ccc2cc(-c3ccc(Oc4ccc(-c5cc6ccc(C(=N)NC)cc6[nH]5)c(C(F)(F)F)c4)cc3)[nH]c2c1 | 0.5 (≈ 0.861 µM) | 0.5 (≈ 0.861 µM) | 0.5 (≈ 0.861 µM) | 1 (≈ 1.72 µM) | 4 (≈ 6.89 µM) | 16 (≈ 27.6 µM) | 8 (≈ 13.8 µM) | 64 (≈ 110 µM) | 8 (≈ 13.8 µM) | 32 (≈ 55.1 µM) | 16 (≈ 27.6 µM) | 0.25 (≈ 0.431 µM) | 0.5 (≈ 0.861 µM) | 8 (≈ 13.8 µM) | 32 (≈ 55.1 µM) |  |
| CC(C)NC(=N)c1ccc2cc(-c3ccc(Oc4ccc(-c5cc6ccc(C(=N)NC(C)C)cc6[nH]5)c(C(F)(F)F)c4)cc3)[nH]c2c1 | 2 (≈ 3.14 µM) | 2 (≈ 3.14 µM) | 2 (≈ 3.14 µM) | 2 (≈ 3.14 µM) | 16 (≈ 25.1 µM) | 16 (≈ 25.1 µM) | 16 (≈ 25.1 µM) | 32 (≈ 50.3 µM) | 16 (≈ 25.1 µM) | 64 (≈ 101 µM) | 16 (≈ 25.1 µM) | 2 (≈ 3.14 µM) | 2 (≈ 3.14 µM) | 16 (≈ 25.1 µM) | 64 (≈ 101 µM) |  |
| CNC(=N)c1ccc2cc(-c3ccc(Oc4ccc(-c5cc6ccc(C(=N)NC)cc6[nH]5)cc4)cc3)[nH]c2c1 | 1 (≈ 1.95 µM) | 1 (≈ 1.95 µM) | 1 (≈ 1.95 µM) | 1 (≈ 1.95 µM) | 128 (≈ 250 µM) | > 128 | > 128 | > 128 | > 128 | > 128 | > 128 |  |  |  |  | > 128 |
| CN(C)C(=N)c1ccc2cc(-c3ccc(Oc4ccc(-c5cc6ccc(C(=N)N(C)C)cc6[nH]5)c(Cl)c4)cc3)[nH]c2c1 | 8 (≈ 13.9 µM) | 2 (≈ 3.48 µM) | 16 (≈ 27.8 µM) | 16 (≈ 27.8 µM) | 32 (≈ 55.6 µM) | > 128 | 128 (≈ 223 µM) | > 128 | 64 (≈ 111 µM) | > 128 | 128 (≈ 223 µM) | 2 (≈ 3.48 µM) | 16 (≈ 27.8 µM) | > 128 | > 128 |  |
| C/N=C(\NC)c1ccc2cc(-c3ccc(Oc4ccc(-c5cc6ccc(C(=N)NC)cc6[nH]5)cc4)cc3)[nH]c2c1 | 0.5 (≈ 0.949 µM) | 0.25 (≈ 0.475 µM) | 1 (≈ 1.9 µM) | 0.25 (≈ 0.475 µM) | 16 (≈ 30.4 µM) | 64 (≈ 122 µM) | 32 (≈ 60.8 µM) | 64 (≈ 122 µM) | 128 (≈ 243 µM) | 128 (≈ 243 µM) | 128 (≈ 243 µM) |  |  |  |  | 64 (≈ 122 µM) |
| COc1cc(Oc2ccc(-c3cc4ccc(C(=N)NC(C)C)cc4[nH]3)cc2)ccc1-c1cc2ccc(C(=N)NC(C)C)cc2[nH]1 | 0.25 (≈ 0.418 µM) | 0.25 (≈ 0.418 µM) | 0.25 (≈ 0.418 µM) | 1 (≈ 1.67 µM) | 16 (≈ 26.7 µM) | 64 (≈ 107 µM) | 64 (≈ 107 µM) | 128 (≈ 214 µM) | 32 (≈ 53.4 µM) | 64 (≈ 107 µM) | 64 (≈ 107 µM) | 0.125 (≈ 0.209 µM) | 0.25 (≈ 0.418 µM) | 64 (≈ 107 µM) | > 128 |  |
| CN(C)C(=N)c1ccc2cc(-c3ccc(Oc4ccc(-c5cc6ccc(C(=N)N(C)C)cc6[nH]5)cc4)cc3)[nH]c2c1 | 0.25 (≈ 0.462 µM) | 0.25 (≈ 0.462 µM) | 0.5 (≈ 0.925 µM) | 1 (≈ 1.85 µM) | 4 (≈ 7.4 µM) | 8 (≈ 14.8 µM) | 8 (≈ 14.8 µM) | 128 (≈ 237 µM) | 8 (≈ 14.8 µM) | 8 (≈ 14.8 µM) | 8 (≈ 14.8 µM) | 0.125 (≈ 0.231 µM) | 2 (≈ 3.7 µM) | 8 (≈ 14.8 µM) | > 128 |  |
| CC(C)NC(=N)c1ccc2cc(-c3ccc(Oc4ccc(-c5cc6ccc(C(=N)NC(C)C)cc6[nH]5)c(C(F)(F)F)c4)cn3)[nH]c2c1 | 0.5 (≈ 0.784 µM) | 0.5 (≈ 0.784 µM) | 0.5 (≈ 0.784 µM) | 0.5 (≈ 0.784 µM) | 8 (≈ 12.5 µM) | 16 (≈ 25.1 µM) | 16 (≈ 25.1 µM) | 32 (≈ 50.2 µM) | 8 (≈ 12.5 µM) | 32 (≈ 50.2 µM) | 16 (≈ 25.1 µM) | 0.5 (≈ 0.784 µM) | 0.5 (≈ 0.784 µM) | 16 (≈ 25.1 µM) | 32 (≈ 50.2 µM) |  |
| CC(C)NC(=N)c1ccc2cc(-c3ccc(Oc4ccc(-c5cc6ccc(C(=N)NC(C)C)cc6[nH]5)c(Cl)c4)cc3)[nH]c2c1 | 8 (≈ 13.3 µM) | 8 (≈ 13.3 µM) | 16 (≈ 26.5 µM) | 16 (≈ 26.5 µM) | 128 (≈ 212 µM) | > 128 | > 128 | > 128 | > 128 | > 128 | > 128 | 1 (≈ 1.66 µM) | 8 (≈ 13.3 µM) | > 128 | > 128 |  |
| CNC(=N)c1ccc2cc(-c3ccc(Oc4ccc(-c5cc6ccc(C(=N)NC)cc6[nH]5)c(C(F)(F)F)c4)cn3)[nH]c2c1 | 0.5 (≈ 0.86 µM) | 0.5 (≈ 0.86 µM) | 1 (≈ 1.72 µM) | 1 (≈ 1.72 µM) | 8 (≈ 13.8 µM) | 32 (≈ 55 µM) | 16 (≈ 27.5 µM) | 64 (≈ 110 µM) | 16 (≈ 27.5 µM) | 64 (≈ 110 µM) | 64 (≈ 110 µM) | 0.25 (≈ 0.43 µM) | 0.5 (≈ 0.86 µM) | 16 (≈ 27.5 µM) | 64 (≈ 110 µM) |  |
